Measured values reported in patent US4436934A, “Bicyclic prostaglandin analogs and method of synthesis” (Iowa State University Research Foundation, Inc., priority 1981, dated 1984).

Key:
[1] = system: platelet thrombus (laser micro-injury of small blood vessel); test: biolaser model of experimental thrombosis (rabbit ear chamber); format: in vivo; details: combined with anagrelide at a lower than threshold level
Source text: These compounds were studied in vivo in an animal model for experimental thrombosis. The use of this model is described in detail in the reprint, Use of the Biolaser in the Evaluation of Anti-Thrombotic Agents, J. S. Fleming et al. "Platelets and Thrombosis", eds. S. Sherry and A. Scriabrine, University Park Press, 1974, Baltimore, which is incorporated herein by reference.
In brief, a micro-injury is created by a laser beam focused through a microscope onto the endothelium surface of a small blood vessel in a surgically implanted ear chamber of a rabbit. The injury induces the rapid formation of a platelet thrombis which can be measured. […] Prostacyclin is active in the biolaser model when infused intraveneously. The results of these tests preliminarily indicate that there is a super additive interaction between anagrelide and the compounds of this invention. […] To date, no other compounds have undergone significant in vivo analysis in the rabbit ear test.

[2] = system: platelet thrombus (laser micro-injury of small blood vessel); details: cited from earlier work; for inhibition of thrombosis (in words): general statement on potent inhibitors of platelet aggregation

SMILES	reduction in thrombosis, combination with anagrelide (in words) [1]	inhibition of thrombosis (in words) [2]	activity in the biolaser model (in words) ([2]; infused intravenously)
CCCCCC(O)C#CC1C2CCC(C2)C1C/C=C/CCCC(=O)OC (stereo not shown) [Example 2]	substantial reduction in thrombosis	–	–
CCCCC[C@H](O)/C=C/[C@@H]1[C@H]2C/C(=C/CCCC(=O)O)O[C@H]2C[C@H]1O [prostacyclin]	–	significant inhibition of this kind of thrombosis	active
O=C1CN2Cc3c(ccc(Cl)c3Cl)N=C2N1 [anagrelide]	–	significant inhibition of this kind of thrombosis	–
